The values that follow come from US8685408B2 (priority 2006, dated 2014).

Assay [1] concerns EG7 tumor. Also on record: species or system C57BL6 mice. The note with it: mouse, in vivo, sc.
In a further assay the test system is dendritic cells. Also on record: species or system mice. As to conditions: mouse, in vivo.
For assay [2], the system named is EG7 tumor. Also on record: species or system C57BL6 mice. The note with it: mouse, in vivo, sc. The source holds these as a separate data set.
For another assay, the system named is Gb3. Set-up: species or system mice. As to conditions: mouse, in vivo.
The subject of assay [3] is anti-OVA257-264 CD8^+T cells. Also on record: species or system C57BL/6 mice. As to conditions: mouse, in vivo.

Read-outs that look alike come from different tables or passages of the source.

Turning to `CCCCCCCCCCCCCCCCCCCCCCCCCC(=O)N[C@@H](CC[C@H]1O[C@H](CO)[C@H](O)[C@H](O)[C@H]1O)[C@H](O)[C@H](O)CCCCCCCCCCCCCC` [C-αGalCer], in the assay with EG7 tumor [1], the “growth of EG7 tumor” value is “will not control the growth of the tumor”.
As to Poly (I:C), in the assay on dendritic cells, the “costimulatory molecules (CD86) and MHC class II / activation of dendritic cells” value is listed as “also activated dendritic cells”.
In the case of `CCCCCCCCCCCCCCCCCCCCCCCCCC(=O)N[C@@H](CO[C@H]1O[C@H](CO)[C@H](O)[C@H](O)[C@H]1O)[C@H](O)[C@H](O)CCCCCCCCCCCCCC` [α-GalCer, (2S,3S,4S)-1-O-(α-D-galactopyranosyloxy)-2-hexacosanoylamino-3,4-octadecanediol], the “growth of EG7 tumor” value in the assay on EG7 tumor [2] is “did not control the growth of the tumor”. Also, the “costimulatory molecules (CD86) and MHC class II / activation of dendritic cells” value in the assay with dendritic cells is on record as “rapid increase”. Besides, the “membrane expression of Gb3 on dendritic and B cells” value in the assay with Gb3 is “did not regulate”.

B1: OVA (protein, UniProt P01012 2-386, looked up)
Ovalbumin: GSIGAASMEFCFDVFKELKVHHANENIFYCPIAIMSALAMVYLGAKDSTRTQINKVVRFDKLPGFGDSIEAQCGTSVNVHSSLRDILNQITKPNDVYSFSLASRLYAEERYPILPEYLQCVKELYRGGLEPINFQTAADQARELINSWVESQTNGIIRNVLQPSSVDSQTAMVLVNAIVFKGLWEKAFKDEDTQAMPFRVTEQESKPVQMMYQIGLFRVASMASEKMKILELPFASGTMSMLVLLPDEVSGLEQLESIINFEKLTEWTSSNVMEERKIKVYLPRMKMEEKYNLTSVLMAMGITDVFSSSANLSGISSAESLKISQAVHAAHAEINEAGREVVGSAEAGVDAASVSEEFRADHPFLFCIKHIATNAVLFFGRCVSP
As for B1, in assay [3], the “induction of anti-OVA257-264 CD8^+T cells” value is reported as “no significant induction”.
